# Patent US11319303B2 (WIGEN BIOMEDICINE TECHNOLOGY (SHANGHAI) CO., LTD., priority 2017, dated 2022)
# Molecular target: LC3B (Homo sapiens, UniProt Q9GZQ8)
# Test: Fluorescence Polarization (FP) Assay: displacement of FITC-labeled peptide from GST-LC3B
# Format: binding
# Details: Fluorescence Polarization assay; GST-LC3B 180 nM, FITC-labeled peptide 18 nM, 25° C.; read-out: IC50
# Protocol: The compounds of the present invention for regulating the autophagy-related protein LC3B were tested by Fluorescence Polarization (FP) Assay.
# Fluorescence Polarization (FP) Assay Test
row,SMILES,IC50
1,"O=C1CC(c2cccc3[nH]cc(C4CC4)c23)CC(=O)C1=CNCCN1CCN(CCO)CC1 (centres unmarked) [Compound 185, 5-(3-cyclopropyl-1H-indol-4-yl)-2-(((2-(4-(2-hydroxyethyl)piperazin-1-yl)ethyl)amino)methylene) cyclohexane-1,3-dione]",< 3 µM
2,"O=C1CC(c2ccccc2-c2ccccc2)CC(=O)C1=CNCCN1CCN(CCO)CC1 (centres unmarked) [Compound 187, 5-([1,1′-biphenyl]-2-yl)-2-(((2-(4-(2-hydroxyethyl)piperazin-1-yl)ethyl)amino)methylene) cyclohexane-1,3-dione]",< 3 µM
3,"O=C1CC(c2ccccc2-c2ccncc2)CC(=O)C1=CNCCN1CCN(CCO)CC1 (centres unmarked) [Compound 188, 2-(((2-(4-(2-hydroxyethyl)piperazin-1-yl)ethyl)amino)methylene)-5-(2-(pyridin-4-yl)phenyl) cyclohexane-1,3-dione]",3 to 15 µM
4,"CN1C(=O)/C(=C\NCCN2CCN(CCO)CC2)C(=O)c2ccccc21 [Compound 193, 3-(((2-(4-(2-hydroxyethyl)piperazin-1-yl)ethyl)amino)methylene)-1-methylquinoline-2,4(1H,3H)-dione]",15 to 100 µM
5,"CN(C)C=C1C(=O)C(C)(c2ccccc2)C1=O (centres unmarked) [Compound 201, 4-((dimethylamino)methylene)-2-methyl-2-phenylcyclobutane-1,3-dione]",100 to 1000 µM
6,"O=C1CC(c2ccccc2)CC(=O)C1=CNCc1ccc(Cl)cn1 (centres unmarked) [Compound 204, 2-((((5-chloropyridin-2-yl)methyl)amino)methylene)-5-phenylcyclohexane-1,3-dione]",100 to 1000 µM
7,"O=C1CC(c2ccccc2)CC(=O)C1=CNCc1cc2ccccc2[nH]1 (centres unmarked) [Compound 205, 2-((((1H-indol-2-yl)methyl)amino)methylene)-5-phenylcyclohexane-1,3-dione]",100 to 1000 µM
8,"CSCCNC=C1C(=O)CC(c2ccccc2)CC1=O (centres unmarked) [Compound 206, 2-(((2-(methylthio)ethyl)amino)methylene)-5-phenylcyclohexane-1,3-dione]",15 to 100 µM
9,"C[S+]([O-])CCNC=C1C(=O)CC(c2ccccc2)CC1=O (centres unmarked) [Compound 207, 2-(((2-(methylsulfinyl)ethyl)amino)methylene)-5-phenylcyclohexane-1,3-dione]",15 to 100 µM
10,"CN(C)CCNC=C1C(=O)CC(c2ccccc2)C(F)C1=O (centres unmarked) [Compound 209, 2-(((2-(dimethylamino)ethyl)amino)methylene)-4-fluoro-5-phenylcyclohexane-1,3-dione]",< 3 µM
11,"O=C(O)CNC(=O)CNC=C1C(=O)CC(c2ccccc2)CC1=O (centres unmarked) [Compound 210, ((2,6-dioxo-4-phenylcyclo-hexylidene)methyl) glycylglycine]",15 to 100 µM
12,"CC(C)C(=O)N1CCN(CCNC=C2C(=O)CC(c3ccccc3)CC2=O)CC1 (centres unmarked) [Compound 211, 2-(((2-(4-isobutyrylpiperazin-1-yl)ethyl)amino)methylene)-5-phenylcyclohexane-1,3-dione]",< 3 µM
13,"CC(C)(C)C(=O)N1CCN(CCNC=C2C(=O)CC(c3ccccc3)CC2=O)CC1 (centres unmarked) [Compound 212, 5-phenyl-2-(((2-(4-pivaloylpiperazin-1-yl)ethyl)amino)methylene) cyclohexane-1,3-dione]",< 3 µM
14,"CCC(=O)N1CCN(CCNC=C2C(=O)CC(c3ccccc3)CC2=O)CC1 (centres unmarked) [Compound 215, 5-phenyl-2-(((2-(4-propionylpiperazin-1-yl)ethyl)amino)methylene) cyclohexane-1,3-dione]",< 3 µM
15,"O=C1CC(c2ccccc2)CC(=O)C1=CNCCN1CCN(C(=O)Cc2ccccc2)CC1 (centres unmarked) [Compound 221, 5-phenyl-2-(((2-(4-(2-phenylacetyl)piperazin-1-yl)ethyl)amino)methylene) cyclohexane-1,3-dione]",< 3 µM
16,"O=C1CC(c2ccccc2)CC(=O)C1=CNCCN1CCN(C(=O)c2cccnc2)CC1 (centres unmarked) [Compound 222, 2-(((2-(4-nicotinoylpiperazin-1-yl)ethyl)amino)methylene)-5-phenylcyclohexane-1,3-dione]",< 3 µM

# The next lines start with the values.
row,IC50,SMILES
1,100 to 1000 µM,"Cc1cccc2[nH]cc(C3CC(=O)C(=CNCCN4CCN(CCO)CC4)C(=O)C3)c12 (centres unmarked) [Compound 184, 2-(((2-(4-(2-hydroxyethyl)piperazin-1-yl)ethyl)amino)methylene)-5-(4-methyl-1H-indol-3-yl)cyclohexane-1,3-dione]"
2,3 to 15 µM,"COc1ccc2[nH]cc(C3CC(=O)C(=CNCCN4CCN(CCO)CC4)C(=O)C3)c2c1 (centres unmarked) [Compound 186, 2-(((2-(4-(2-hydroxyethyl)piperazin-1-yl)ethyl)amino)methylene)-5-(5-methoxy-1H-indol-3-yl)cyclohexane-1,3-dione]"
3,< 3 µM,"O=C1CC(c2ccccc2C2CC2)CC(=O)C1=CNCCN1CCN(CCO)CC1 (centres unmarked) [Compound 189, 5-(2-cyclopropylphenyl)-2-(((2-(4-(2-hydroxyethyl)piperazin-1-yl)ethyl)amino)methylene) cyclohexane-1,3-dione]"
4,15 to 100 µM,"O=C1CC(c2ccccc2)C(C(=O)N2CCOCC2)C(=O)C1=CNCCN1CCN(CCO)CC1 (centres unmarked) [Compound 190, 2-(((2-(4-(2-hydroxyethyl)piperazin-1-yl)ethyl)amino)methylene)-4-(morpholine-4-carbonyl)-5-phenylcyclo-hexane-1,3-dione]"
5,< 3 µM,"CCOC(=O)C1C(=O)/C(=C\NCCN2CCN(CCO)CC2)C(=O)CC1c1ccccc1Br (centres unmarked) [Compound 191, ethyl-6-(2-bromophenyl)-3-(((2-(4-(2-hydroxyethyl)piperazin-1-yl)ethyl)amino)methylene)-2,4-dioxocyclohexane-1-carboxylate]"
6,3 to 15 µM,"O=C1Nc2ccc(Cl)cc2C(=O)/C1=C/NCCN1CCN(CCO)CC1 [Compound 192, 6-chloro-3-(((2-(4-(2-hydroxyethyl)piperazin-1-yl)ethyl)amino)methylene) quinoline-2,4 (1H,3H)-dione]"
7,15 to 100 µM,"COc1cccc2c1NC(=O)/C(=C\NCCN1CCN(CCO)CC1)C2=O [Compound 194, 3-(((2-(4-(2-hydroxyethyl)piperazin-1-yl)ethyl)amino)methylene)-8-methoxyquinoline-2,4(1H,3H)-dione]"
8,3 to 15 µM,"O=C1Nc2c(F)cccc2C(=O)/C1=C/NCCN1CCN(CCO)CC1 [Compound 195, 8-fluoro-3-(((2-(4-(2-hydroxyethyl)piperazin-1-yl)ethyl)amino)methylene) quinoline-2,4 (1H,3H)-dione]"
9,3 to 15 µM,"COc1ccc2c(c1)C(=O)/C(=C/NCCN1CCN(CCO)CC1)C(=O)N2 [Compound 196, 3-(((2-(4-(2-hydroxyethyl)piperazin-1-yl)ethyl)amino)methylene)-6-methoxyquinoline-2,4(1H,3H)-dione]"
10,< 3 µM,"O=C1Nc2c(cccc2C(F)(F)F)C(=O)/C1=C/NCCN1CCN(CCO)CC1 [Compound 197, 3-(((2-(4-(2-hydroxyethyl)piperazin-1-yl)ethyl)amino)methylene)-8-(trifluoromethyl) quinoline-2,4(1H,3H)-dione]"
11,100 to 1000 µM,"O=C1NC(=O)/C(=C\NCCN2CCN(CCO)CC2)S1 [Compound 200, 5-(((2-(4-(2-hydroxyethyl)piperazin-1-yl)ethyl)amino)methylene)thiazolidine-2,4-dione]"
12,15 to 100 µM,"CN(C)CCCNC=C1C(=O)CC(c2ccccc2)CC1=O (centres unmarked) [Compound 202, 2-(((3-(dimethylamino)propyl)amino)methylene)-5-phenylcyclohexane-1,3-dione]"
13,3 to 15 µM,"Cc1cccc(CNC=C2C(=O)CC(c3ccccc3)CC2=O)n1 (centres unmarked) [Compound 203, 2-((((6-methylpyridin-2-yl)methyl)amino)methylene)-5-phenylcyclohexane-1,3-dione]"
14,15 to 100 µM,"CS(=O)(=O)CCNC=C1C(=O)CC(c2ccccc2)CC1=O (centres unmarked) [Compound 208, 2-(((2-(methylsulfonyl)ethyl)amino)methylene)-5-phenylcyclohexane-1,3-dione]"
15,< 3 µM,"CC(C)CC(=O)N1CCN(CCNC=C2C(=O)CC(c3ccccc3)CC2=O)CC1 (centres unmarked) [Compound 213, 2-(((2-(4-(3-methylbutanoyl)piperazin-1-yl)ethyl)amino)methylene)-5-phenylcyclohexane-1,3-dione]"
16,< 3 µM,"CN(C)C(=O)N1CCN(CCNC=C2C(=O)CC(c3ccccc3)CC2=O)CC1 (centres unmarked) [Compound 214, 4-(2-(((2,6-dioxo-4-phenylcyclo-hexylidene)methyl)amino)ethyl)-N,N-dimethylpiperazine-1-carboxamide]"
17,< 3 µM,"O=C1CC(c2ccccc2)CC(=O)C1=CNCCN1CCN(C(=O)c2ccccc2)CC1 (centres unmarked) [Compound 216, 2-(((2-(4-benzoylpiperazin-1-yl)ethyl)amino)methylene)-5-phenylcyclohexane-1,3-dione]"
18,3 to 15 µM,"O=C1CC(c2ccccc2)CC(=O)C1=CNCCN1CCN(C(=O)c2ccc([N+](=O)[O-])cc2)CC1 (centres unmarked) [Compound 217, 2-(((2-(4-(4-nitrobenzoyl)piperazin-1-yl)ethyl)amino)methylene)-5-phenylcyclohexane-1,3-dione]"
19,< 3 µM,"CS(=O)(=O)N1CCN(CCNC=C2C(=O)CC(c3ccccc3)CC2=O)CC1 (centres unmarked) [Compound 218, 2-(((2-(4-(methylsulfonyl)piperazin-1-yl)ethyl)amino)methylene)-5-phenylcyclohexane-1,3-dione]"
20,< 3 µM,"O=C1CC(c2ccccc2)CC(=O)C1=CNCCN1CCN(C(=O)c2ccc(Cl)cc2)CC1 (centres unmarked) [Compound 219, 2-(((2-(4-(4-chlorobenzoyl)piperazin-1-yl)ethyl)amino)methylene)-5-phenylcyclohexane-1,3-dione]"
21,3 to 15 µM,"O=C1CC(c2ccccc2)CC(=O)C1=CNCCN1CCN(C(=O)c2ccc(Br)cc2)CC1 (centres unmarked) [Compound 220, 2-(((2-(4-(4-bromobenzoyl)piperazin-1-yl)ethyl)amino)methylene)-5-phenylcyclohexane-1,3-dione]"
22,< 3 µM,"Cc1ccc(NC(=O)N2CCN(CCNC=C3C(=O)CC(c4ccc(C)cc4)CC3=O)CC2)cc1 (centres unmarked) [Compound 224, 4-(2-(((2,6-dioxo-4-(p-tolyl)cyclohexylidene)methyl)amino)ethyl)-N-(p-tolyl)piperazine-1-carboxamide]"
